Assay results: PubChem BioAssay AID1259407 (Chemical Carcinogenesis Research Information System (CCRIS), 2018)
Activity calls are given as the source filed them. How the calls were made is not given here.

Tested on: CCRIS mutagenicity, Ames/micronucleus/aberration tests
Experiment: CCRIS mutagenicity studies
[1] = Test System: AMES SALMONELLA TYPHIMURIUM, Strain/Indicator: TA97, Metabolic Activation: NONE, Method: STANDARD PLATE
[2] = Test System: AMES SALMONELLA TYPHIMURIUM, Strain/Indicator: TA97, Metabolic Activation: RAT, LIVER, S-9, AROCLOR 1254, Method: STANDARD PLATE
[3] = Test System: AMES SALMONELLA TYPHIMURIUM, Strain/Indicator: TA98, Metabolic Activation: NONE, Method: STANDARD PLATE
[4] = Test System: AMES SALMONELLA TYPHIMURIUM, Strain/Indicator: TA98, Metabolic Activation: RAT, LIVER, S-9, AROCLOR 1254, Method: STANDARD PLATE
[5] = Test System: AMES SALMONELLA TYPHIMURIUM, Strain/Indicator: TA100, Metabolic Activation: NONE, Method: STANDARD PLATE
[6] = Test System: AMES SALMONELLA TYPHIMURIUM, Strain/Indicator: TA100, Metabolic Activation: RAT, LIVER, S-9, AROCLOR 1254, Method: STANDARD PLATE
[7] = Test System: AMES SALMONELLA TYPHIMURIUM, Strain/Indicator: TA102, Metabolic Activation: NONE, Method: STANDARD PLATE
[8] = Test System: AMES SALMONELLA TYPHIMURIUM, Strain/Indicator: TA102, Metabolic Activation: RAT, LIVER, S-9, AROCLOR 1254, Method: STANDARD PLATE
[9] = Test System: AMES SALMONELLA TYPHIMURIUM, Strain/Indicator: TA1537, Metabolic Activation: NONE, Method: STANDARD PLATE

Q: What does the source list for `CCOC(=O)c1[nH]c2ccccc2c1N=Cc1cc(OC)c(OC)c(OC)c1`?
A: mutagenic call [1]: active; positive; mutagenic call [2]: inactive; negative; mutagenic call [3]: inactive; negative; mutagenic call [4]: inactive; negative; mutagenic call [5]: inactive; negative; mutagenic call [6]: inactive; negative; mutagenic call [7]: inactive; negative; mutagenic call [8]: inactive; negative

Q: `Cc1ccncc1` was tested. Which mutagenic call [1] did it give?
A: The mutagenic call was “inactive; negative”.

Q: And the mutagenic call [2]?
A: Its mutagenic call is “inactive; negative”.

Q: And the mutagenic call [3]?
A: Its mutagenic call is “inactive; negative”.

Q: What about the mutagenic call [4] of the same compound?
A: Its mutagenic call is “inactive; negative”.

Q: And the mutagenic call [5]?
A: Its mutagenic call is “inactive; negative”.

Q: And the mutagenic call [6]?
A: The mutagenic call was “inactive; negative”.

Q: And the mutagenic call [7]?
A: Its mutagenic call is “inactive; negative”.

Q: What about the mutagenic call [8] of the same compound?
A: The mutagenic call was “inactive; negative”.

Q: For `COc1ccc(Nc2c3ccccc3nc3ccccc23)cc1`, which mutagenic call [9] is on record?
A: The mutagenic call was “active; positive”.

Q: With `FC(F)(F)c1ccc(Cl)nc1` as the compound, how does the mutagenic call (Test System: MOUSE LYMPHOMA, Strain/Indicator: L5178Y (TK+/TK-), Metabolic Activation: NONE) read?
A: Its mutagenic call is “active; positive”.

Q: And the mutagenic call (Test System: MOUSE LYMPHOMA, Strain/Indicator: L5178Y (TK+/TK-), Metabolic Activation: RAT, LIVER, S-9, AROCLOR 1254)?
A: The mutagenic call was “active; positive”.

Q: For `Clc1cnc2ccccc2c1`, which mutagenic call (Test System: AMES SALMONELLA TYPHIMURIUM, Strain/Indicator: TA100, Metabolic Activation: RAT, LIVER, S-9, PHENOBARBITAL AND 5,6-BENZOFLAVONE, Method: PREINCUBATION) is on record?
A: The mutagenic call was “inactive; negative”.

Q: Which mutagenic call (Test System: AMES SALMONELLA TYPHIMURIUM, Strain/Indicator: TA98, Metabolic Activation: HUMAN, LIVER, CYTOSOL, PAPS, Method: PREINCUBATION) does the source give for `OC1Cc2cc3cccc4ccc5ccc1c2c5c43` (stereo unspecified) here?
A: The mutagenic call was “active; positive”.

Q: How did the mutagenic call (Test System: CHINESE HAMSTER V-79, Strain/Indicator: V-79/6-THIOGUANINE, Metabolic Activation: NONE, Method: REPLATING) turn out when `O=c1nc(NNCCO)ccn1[C@@H]1O[C@H](CO)[C@@H](O)[C@H]1O` was run?
A: Its mutagenic call is “active; positive”.

Q: Which mutagenic call (Test System: AMES SALMONELLA TYPHIMURIUM, Strain/Indicator: TA98, Metabolic Activation: HAMSTER, LIVER, S-9, AROCLOR 1254, Method: PREINCUBATION) does the source give for `Oc1cc(Cl)cc(Cl)c1` here?
A: The mutagenic call was “inactive; negative”.

Q: And the mutagenic call (Test System: AMES SALMONELLA TYPHIMURIUM, Strain/Indicator: TA98, Metabolic Activation: NONE, Method: PREINCUBATION)?
A: Its mutagenic call is “inactive; negative”.

Q: And the mutagenic call (Test System: AMES SALMONELLA TYPHIMURIUM, Strain/Indicator: TA98, Metabolic Activation: RAT, LIVER, S-9, AROCLOR 1254, Method: PREINCUBATION)?
A: Its mutagenic call is “inactive; negative”.

Q: And the mutagenic call (Test System: AMES SALMONELLA TYPHIMURIUM, Strain/Indicator: TA100, Metabolic Activation: HAMSTER, LIVER, S-9, AROCLOR 1254, Method: PREINCUBATION)?
A: The mutagenic call was “inactive; negative”.

Q: And the mutagenic call (Test System: AMES SALMONELLA TYPHIMURIUM, Strain/Indicator: TA100, Metabolic Activation: NONE, Method: PREINCUBATION)?
A: The mutagenic call was “inactive; negative”.

Q: And the mutagenic call (Test System: AMES SALMONELLA TYPHIMURIUM, Strain/Indicator: TA100, Metabolic Activation: RAT, LIVER, S-9, AROCLOR 1254, Method: PREINCUBATION)?
A: The mutagenic call was “inactive; negative”.

Q: And the mutagenic call (Test System: AMES SALMONELLA TYPHIMURIUM, Strain/Indicator: TA1535, Metabolic Activation: HAMSTER, LIVER, S-9, AROCLOR 1254, Method: PREINCUBATION)?
A: The mutagenic call was “inactive; negative”.

Q: And the mutagenic call (Test System: AMES SALMONELLA TYPHIMURIUM, Strain/Indicator: TA1535, Metabolic Activation: NONE, Method: PREINCUBATION)?
A: Its mutagenic call is “inactive; negative”.

Q: And the mutagenic call (Test System: AMES SALMONELLA TYPHIMURIUM, Strain/Indicator: TA1535, Metabolic Activation: RAT, LIVER, S-9, AROCLOR 1254, Method: PREINCUBATION)?
A: The mutagenic call was “inactive; negative”.

Q: What about the mutagenic call (Test System: AMES SALMONELLA TYPHIMURIUM, Strain/Indicator: TA1537, Metabolic Activation: HAMSTER, LIVER, S-9, AROCLOR 1254, Method: PREINCUBATION) of the same compound?
A: Its mutagenic call is “inactive; negative”.

Q: And the mutagenic call (Test System: AMES SALMONELLA TYPHIMURIUM, Strain/Indicator: TA1537, Metabolic Activation: NONE, Method: PREINCUBATION)?
A: Its mutagenic call is “inactive; negative”.

Q: And the mutagenic call (Test System: AMES SALMONELLA TYPHIMURIUM, Strain/Indicator: TA1537, Metabolic Activation: RAT, LIVER, S-9, AROCLOR 1254, Method: PREINCUBATION)?
A: The mutagenic call was “inactive; negative”.

Q: Which results are given for `O=c1[nH]cnc2c1ncn2[C@H]1CC[C@@H](CO)O1`?
A: mutagenic call (Test System: AMES SALMONELLA TYPHIMURIUM, Strain/Indicator: TA98, Metabolic Activation: HAMSTER, LIVER, S-9, AROCLOR 1254, Method: STANDARD PLATE): inactive; negative; mutagenic call [3]: inactive; negative; mutagenic call [4]: inactive; negative; mutagenic call (Test System: AMES SALMONELLA TYPHIMURIUM, Strain/Indicator: TA100, Metabolic Activation: HAMSTER, LIVER, S-9, AROCLOR 1254, Method: STANDARD PLATE): inactive; negative; mutagenic call [5]: inactive; negative; mutagenic call [6]: inactive; negative; mutagenic call (Test System: AMES SALMONELLA TYPHIMURIUM, Strain/Indicator: TA1535, Metabolic Activation: HAMSTER, LIVER, S-9, AROCLOR 1254, Method: STANDARD PLATE): inactive; negative; mutagenic call (Test System: AMES SALMONELLA TYPHIMURIUM, Strain/Indicator: TA1535, Metabolic Activation: NONE, Method: STANDARD PLATE): inactive; negative; mutagenic call (Test System: AMES SALMONELLA TYPHIMURIUM, Strain/Indicator: TA1535, Metabolic Activation: RAT, LIVER, S-9, AROCLOR 1254, Method: STANDARD PLATE): inactive; negative; mutagenic call (Test System: AMES SALMONELLA TYPHIMURIUM, Strain/Indicator: TA1537, Metabolic Activation: HAMSTER, LIVER, S-9, AROCLOR 1254, Method: STANDARD PLATE): inactive; negative; mutagenic call [9]: inactive; negative; mutagenic call (Test System: AMES SALMONELLA TYPHIMURIUM, Strain/Indicator: TA1537, Metabolic Activation: RAT, LIVER, S-9, AROCLOR 1254, Method: STANDARD PLATE): inactive; negative; mutagenic call (Test System: AMES SALMONELLA TYPHIMURIUM, Strain/Indicator: TA1538, Metabolic Activation: HAMSTER, LIVER, S-9, AROCLOR 1254, Method: STANDARD PLATE): inactive; negative; mutagenic call (Test System: AMES SALMONELLA TYPHIMURIUM, Strain/Indicator: TA1538, Metabolic Activation: NONE, Method: STANDARD PLATE): inactive; negative; mutagenic call (Test System: AMES SALMONELLA TYPHIMURIUM, Strain/Indicator: TA1538, Metabolic Activation: RAT, LIVER, S-9, AROCLOR 1254, Method: STANDARD PLATE): inactive; negative; mutagenic call (Test System: HUMAN B LYMPHOBLASTOID CELLS, Strain/Indicator: TK6 CELL (HPRT)/6-THIOGUANINE, Metabolic Activation: NONE, Method: SUSPENSION/PLATE): active; positive; mutagenic call (Test System: HUMAN B LYMPHOBLASTOID CELLS, Strain/Indicator: TK6 CELL (TK+/-)/TRIFLUOROTHYMIDINE, Metabolic Activation: NONE, Method: SUSPENSION/PLATE): active; positive
